Where two headings read alike, the source gives them in different places. *1 amine or outer side, *2 acyl side, *3 side chain or, on linkers, in order; H or OH if unused. Where a SMILES comes first, the peptide text is derived from it. [ ]: non-standard residue; d: D form. The star is where a group is joined. 5FAM = O=C1OC2(c3ccc(O)cc3Oc3cc(O)ccc32)c2ccc(C(=O)*)cc21; Quinoxaline2carbonyl = O=C(c1cnc2ccccc2n1)*; Ethylenediamine = C(CN[*:2])N[*:1]; NMeV = CN[C@H](C(=O)O)C(C)C; NMeAbu = CC[C@H](NC)C(=O)O; Abu = CC[C@H](N)C(=O)O; Dap = NC[C@H](N)C(=O)O

IC50 data for 12 compounds are collected here from PMC5666514 (Chemical Science, 2015).

Assay in all cases: cells
Format in all cases: cell-based, human

The subject of assay [1] is A-549 lung carcinoma cells. On the procedure:
(§1) The twelve synthesized compounds were evaluated in vitro using the following four human cancer cell lines: cervical adenocarcinoma (HeLa), lung carcinoma (A-549), breast adenocarcinoma (SK-BR-3) and colon adenocarcinoma (HT-29). Cells were treated for 24 h with various concentrations of the compounds, and their cytotoxic activity was then assessed using the [3-(4,5-dimethylthiazol-2-yl)-2,5-diphenyltetrazolium] bromide (MTT) assay.[29] Analysis of the dose-response data obtained yielded IC50 (50% inhibitory concentration) values, which are detailed in Table 1.
(§2) Normally growing cells were plated at 5 × 10^3 cells per well into 96-well plates and incubated for 24 h at 37 °C to allow attachment to the surface. Samples were then added dissolved in a DMSO–PBS vehicle (less than 1% in culture medium) at a range of concentrations. Drugs were run in triplicate or greater and control wells contained appropriate percentages of vehicle. After 24 h of exposure, the antitumor effect was measured using a solution of MTT, which is bioreduced by viable cells into formazan. The formed crystals were solubilized using DMSO and the amount of formazan was measured by reading the absorbance at 570 nm. The absorbance of wells containing only the MTT reagent (the plate blank) was subtracted from all wells.
(§3) The IC50 values were determined by dose response curve analysis and statistical analysis using GraphPad Prism software version 5.0a. […]
(§4) mM L-glutamine and antibiotics.
(§5) in a humidified atmosphere containing 5% CO2. For sub-culturing, cells were detached from
(§6) 5 mL of fresh medium preheated at 37 °C. Cellular density was determined in a Neubauer

Assay [2] concerns HeLa cervical adenocarcinoma cells. As to the method:
as §1, §2, §3, §4, §5, §6

Assay [3] concerns SK-BR-3 breast adenocarcinoma cells. As to the method:
as §1, §2, §3, §4, §5, §6

For assay [4], the system named is HT-29 colon adenocarcinoma cells. As to the method: as §1, §2, §3, §4, §5, §6
Setting [5] is: MTT assay, 24 h exposure, run in triplicate or greater, read-out: IC50, Cervix HeLa.

The IC50 is the concentration needed to halve the response being measured. `COc1cccc2c1C(=O)c1c(O)c3c(c(O)c1C2=O)C[C@@](O)(C(=O)CO)C[C@@H]3O[C@H]1C[C@H](N)[C@H](O)[C@H](C)O1` [Doxorubicin, reference compound]: the IC50 in assay [1] (Homo sapiens, A549, MTT assay, 24 h exposure, run in triplicate or greater, read-out: IC50, Lung A-549) was 0.6 µM; in assay [2] (Homo sapiens, HeLa, MTT assay, 24 h exposure, run in triplicate or greater, read-out: IC50, Cervix HeLa), 5.4 µM; in assay [3] (Homo sapiens, SK-BR-3, MTT assay, 24 h exposure, run in triplicate or greater, read-out: IC50, Breast SK-BR-3) it was 0.5 µM; in assay [4] (Homo sapiens, HT-29, MTT assay, 24 h exposure, run in triplicate or greater, read-out: IC50, Colon HT-29), 8.9 µM.

For the compound `CC[C@@H](C(=O)N(C)[C@H](C(=O)N[C@H](C(=O)N1CCC[C@@H]1C(=O)NCC(=O)N[C@H](C(=O)N(C)[C@H](C(=O)N(C)[C@@H](CC)C(=O)NCCNC(=O)c1cnc2ccccc2n1)C(C)C)C(C)C)C(C)C)C(C)C)N(C)C(=O)[C@H](CO)NC(=O)c1cnc2ccccc2n1` [RZ1] (Quinoxaline2carbonyl-S[NMeAbu][NMeV]V[dP]GV[NMeV][NMeAbu]-{Ethylenediamine-Quinoxaline2carbonyl}), the IC50 came to 51.2 µM in assay [1] (24 h), 42.2 µM in assay [2] (24 h), 96.7 µM in assay [3] (24 h) and 88.4 µM in assay [4] (24 h).

`CC[C@H](NC(=O)[C@H](CNC(=O)c1ccc2c(c1)C(=O)OC21c2ccc(O)cc2Oc2cc(O)ccc21)NC(=O)c1cnc2ccccc2n1)C(=O)N[C@H](C(=O)N[C@H](C(=O)N1CCC[C@@H]1C(=O)NCC(=O)N[C@H](C(=O)N[C@H](C(=O)N[C@@H](CC)C(=O)NCCNC(=O)c1cnc2ccccc2n1)C(C)C)C(C)C)C(C)C)C(C)C` [RZ2CF] (Quinoxaline2carbonyl-[Dap](5FAM)[Abu]VV[dP]GVV[Abu]-{Ethylenediamine-Quinoxaline2carbonyl}): the half-maximal inhibitory concentration (IC50) in assay [2] (setting [5]) worked out at 16.7 µM.

As to `CC[C@@H](C(=O)NCCNC(=O)c1cnc2ccccc2n1)N(C)C(=O)[C@H](C(C)C)N(C)C(=O)[C@@H](NC(=O)CNC(=O)[C@H]1CCCN1C(=O)[C@@H](NC(=O)[C@H](C(C)C)N(C)C(=O)[C@H](CC)N(C)C(=O)[C@@H](CO)NC(=O)c1cnc2ccccc2n1)C(C)C)C(C)C` [RZ3] (Quinoxaline2carbonyl-[dS][NMeAbu][NMeV]V[dP]GV[NMeV][NMeAbu]-{Ethylenediamine-Quinoxaline2carbonyl}), the IC50 was 65.8 µM in assay [1] (24 h), 93.8 µM in assay [2] (24 h), 98.1 µM in assay [3] (24 h) and 72.3 µM in assay [4] (24 h).

As to `CC[C@H](NC(=O)[C@@H](NC(=O)[C@@H](NC(=O)CNC(=O)[C@H]1CCCN1C(=O)[C@@H](NC(=O)[C@@H](NC(=O)[C@H](CC)NC(=O)[C@@H](CO)NC(=O)c1cnc2ccccc2n1)C(C)C)C(C)C)C(C)C)C(C)C)C(=O)NCCNC(=O)c1cnc2ccccc2n1` [RZ4] (Quinoxaline2carbonyl-[dS][Abu]VV[dP]GVV[Abu]-{Ethylenediamine-Quinoxaline2carbonyl}), the IC50 is 34.9 µM in assay [1] (MTT assay, 24 h exposure, run in triplicate or greater, read-out: IC50, Lung A-549); 30.9 µM in assay [2] (setting [5]); more than 100 µM in assay [3] (MTT assay, 24 h exposure, run in triplicate or greater, read-out: IC50, Breast SK-BR-3); 75 µM in assay [4] (MTT assay, 24 h exposure, run in triplicate or greater, read-out: IC50, Colon HT-29).

On to `CC[C@@H](C(=O)N(C)[C@H](C(=O)N[C@H](C(=O)N1CCC[C@@H]1C(=O)NCC(=O)N[C@H](C(=O)N(C)[C@H](C(=O)N(C)[C@@H](CC)C(=O)NCCNC(=O)c1cnc2ccccc2n1)C(C)C)[C@@H](C)O)[C@@H](C)O)C(C)C)N(C)C(=O)[C@H](CO)NC(=O)c1cnc2ccccc2n1` [RZ5] (Quinoxaline2carbonyl-S[NMeAbu][NMeV]T[dP]GT[NMeV][NMeAbu]-{Ethylenediamine-Quinoxaline2carbonyl}), for which the IC50 in assay [1] (24 h) was 70.7 µM; in assay [2] (24 h) it was more than 100 µM; in assay [3] (24 h) it was 84.6 µM; in assay [4] (24 h), 84.8 µM.

For the compound `CC[C@H](NC(=O)[C@H](CO)NC(=O)c1cnc2ccccc2n1)C(=O)N[C@H](C(=O)N[C@H](C(=O)N1CCC[C@@H]1C(=O)NCC(=O)N[C@H](C(=O)N[C@H](C(=O)N[C@@H](CC)C(=O)NCCNC(=O)c1cnc2ccccc2n1)C(C)C)[C@@H](C)O)[C@@H](C)O)C(C)C` [RZ6] (Quinoxaline2carbonyl-S[Abu]VT[dP]GTV[Abu]-{Ethylenediamine-Quinoxaline2carbonyl}), the IC50 in assay [1] (24 h) came out at 84.5 µM; in assay [2] (24 h) it was 45.6 µM; in assay [3] (24 h), 55.3 µM; in assay [4] (24 h), 83.1 µM.

For `CC[C@@H](C(=O)NCCNC(=O)c1cnc2ccccc2n1)N(C)C(=O)[C@H](C(C)C)N(C)C(=O)[C@@H](NC(=O)CNC(=O)[C@H]1CCCN1C(=O)[C@@H](NC(=O)[C@H](C(C)C)N(C)C(=O)[C@H](CC)N(C)C(=O)[C@@H](CO)NC(=O)c1cnc2ccccc2n1)[C@@H](C)O)[C@@H](C)O` [RZ7] (Quinoxaline2carbonyl-[dS][NMeAbu][NMeV]T[dP]GT[NMeV][NMeAbu]-{Ethylenediamine-Quinoxaline2carbonyl}), the IC50 in assay [1] (24 h) is 72.8 µM; in assay [2] (24 h), 84.5 µM; in assay [3] (24 h), more than 100 µM; in assay [4] (24 h) it was 90.7 µM.

As to `CC[C@H](NC(=O)[C@@H](NC(=O)[C@@H](NC(=O)CNC(=O)[C@H]1CCCN1C(=O)[C@@H](NC(=O)[C@@H](NC(=O)[C@H](CC)NC(=O)[C@@H](CO)NC(=O)c1cnc2ccccc2n1)C(C)C)[C@@H](C)O)[C@@H](C)O)C(C)C)C(=O)NCCNC(=O)c1cnc2ccccc2n1` [RZ8] (Quinoxaline2carbonyl-[dS][Abu]VT[dP]GTV[Abu]-{Ethylenediamine-Quinoxaline2carbonyl}), the IC50 was determined as 23.4 µM in assay [1] (24 h), 37.1 µM in assay [2] (24 h), 44.5 µM in assay [3] (24 h) and 39.8 µM in assay [4] (24 h).

Regarding `CC[C@H](C)[C@H](NC(=O)CNC(=O)[C@H]1CCCN1C(=O)[C@@H](NC(=O)[C@H](C(C)C)N(C)C(=O)[C@H](CC)N(C)C(=O)[C@H](CO)NC(=O)c1cnc2ccccc2n1)[C@@H](C)CC)C(=O)N(C)[C@H](C(=O)N(C)[C@@H](CC)C(=O)NCCNC(=O)c1cnc2ccccc2n1)C(C)C` [RZ9] (Quinoxaline2carbonyl-S[NMeAbu][NMeV]I[dP]GI[NMeV][NMeAbu]-{Ethylenediamine-Quinoxaline2carbonyl}), the IC50 is 60.9 µM in assay [1] (24 h), 50.9 µM in assay [2] (24 h), 90.6 µM in assay [3] (24 h) and 84.4 µM in assay [4] (24 h).

With `CC[C@H](NC(=O)[C@H](CO)NC(=O)c1cnc2ccccc2n1)C(=O)N[C@H](C(=O)N[C@H](C(=O)N1CCC[C@@H]1C(=O)NCC(=O)N[C@H](C(=O)N[C@H](C(=O)N[C@@H](CC)C(=O)NCCNC(=O)c1cnc2ccccc2n1)C(C)C)[C@@H](C)CC)[C@@H](C)CC)C(C)C` [RZ10] (Quinoxaline2carbonyl-S[Abu]VI[dP]GIV[Abu]-{Ethylenediamine-Quinoxaline2carbonyl}), the half-maximal inhibitory concentration (IC50) in assay [1] (24 h) stood at 26.8 µM; in assay [2] (24 h), 14.1 µM; in assay [3] (24 h) it was 62.1 µM; in assay [4] (24 h), 53.8 µM.

On to `CC[C@H](C)[C@H](NC(=O)CNC(=O)[C@H]1CCCN1C(=O)[C@@H](NC(=O)[C@H](C(C)C)N(C)C(=O)[C@H](CC)N(C)C(=O)[C@@H](CO)NC(=O)c1cnc2ccccc2n1)[C@@H](C)CC)C(=O)N(C)[C@H](C(=O)N(C)[C@@H](CC)C(=O)NCCNC(=O)c1cnc2ccccc2n1)C(C)C` [RZ11] (Quinoxaline2carbonyl-[dS][NMeAbu][NMeV]I[dP]GI[NMeV][NMeAbu]-{Ethylenediamine-Quinoxaline2carbonyl}), for which the IC50 was 96.3 µM in assay [1] (24 h), 24.3 µM in assay [2] (24 h), 78.9 µM in assay [3] (24 h) and 64.7 µM in assay [4] (24 h).
